Data as given in article PMC8308784, “Novel Purine Chemotypes with Activity against Plasmodium falciparum and Trypanosoma cruzi” (Pharmaceuticals, 2021).
Read-outs that look alike come from different tables or passages of the source.

Legend:
Type in all cases: cell-based
[1] = tested on: T. cruzi Tulahuen strain expressing β-galactosidase; assay: anti-T. cruzi dose-response growth inhibition assay (Vero cells plus trypomastigotes, CPRG readout); settings: anti-T. cruzi IC50 of non-progressed compounds, read-out: Dose-response assay IC50
Description: (§1) T. cruzi parasites from the Tulahuen strain (discrete typing unit (DTU) VI) expressing β-galactosidase were maintained in culture by the infection of LLC-MK2 cells in DMEM supplemented with 2% FBS and 1% penicillin–streptomycin–glutamine (PSG), as described in [52]. When free-swimming trypomastigotes were released to the culture medium, they were centrifuged for 7 min at 2500 rpm and allowed to swim out of the pellet. Trypomastigotes were used to maintain the parasite cycle, or for the performance of the antiparasitic assays.
(§2) T. cruzi growth was primarily analyzed under three different concentrations (100, 10, and 1 mM) of the 81 compounds. Conditions were tested in triplicate for every concentration. Z-values varied between 0.81 and 0.92 in the different plates analyzed. Selected compounds (34.6% potential hit rate) were further analyzed via standard growth inhibition assays. The Z-values of dose–response assays correlated with those previously reported. For both assays, Vero cells and trypomastigotes from the Tulahuen T. cruzi strain expressing β-galactosidase were harvested, centrifuged, and resuspended in DMEM without phenol red supplemented with 1% PSG, 2% FBS, 1 mM sodium pyruvate, and 25 mM HEPES. Vero cells and trypomastigotes were counted, diluted at a concentration of 1 × 10^6 cells/mL each, and mixed 1:1 (v/v). Then, 100 μL of that mixture was added per well to the plates already containing the compounds. Each well contained 50,000 host cells and 50,000 parasites, i.e., multiplicity of infection (MOI) = 1. BNZ was used as control of maximal drug growth inhibition in each round, whereas each plate contained its own negative control (maximum parasite growth; Vero cells plus parasites without drugs) and positive control (minimum parasite growth; trypomastigote forms alone marking an enzymatic zero time or baseline galactosidase activity). After four days at 37 °C, 50 µL of a PBS solution containing 0.25% NP40 and 500 µM chlorophenol red-β-D-galactopyranoside (CPRG) substrate were added per well [32]. Plates were incubated at 37 °C for 4 h, and their absorbance read out at 590 nm using an Epoch Gene5 spectrophotometer.
(§3) Absorbance values derived from the anti-T. cruzi assays and fluorescence values from the anti-P. falciparum and cell toxicity assays were normalized to the controls. In the primary screening at three fixed doses, the compounds’ inhibitory activity was expressed as a percentage of the negative control (100% parasitic growth). In dose–response assays, the compounds’ IC50 and TC50 values were determined with GraphPad Prism 7 software (version 7.00, 2016), using a non-linear regression analysis model defined by the following equation: Y=100 ÷(1+10^((LogIC50−X)×HillSlope))

P. falciparum 3D7 = assay: P. falciparum primary screening at three fixed concentrations; settings: average of at least three experiments; for activity at 1 µM / activity at 10 µM / activity at 100 µM: Plasmodium falciparum, read-out: Primary screening, parasite growth relative to the negative control; for activity at 1 µM: 3D7, compound at 1 µM; for activity at 10 µM: 3D7, compound at 10 µM; for activity at 100 µM: 3D7, compound at 100 µM
Description: Apicomplexan parasite cultures were maintained at 3% hematocrit under an atmosphere of 37 °C in 93% N2, 5% CO2, and 2% O2, following standard methods. Synchronized cultures were obtained via 5% sorbitol lysis.
[…] Conditions were tested in triplicate for every concentration, and the test was repeated when the standard deviation was above 10% for any concentration. Z-values varied between 0.83 and 0.98 in the different plates analyzed. Selected compounds (12.3% potential hit rate) were further analyzed via standard growth inhibition assays, carried out as previously described in [54]. Briefly, parasitemia was adjusted to 1–1.3%, with >90% rings after sorbitol synchronization. Two hundred microliters of parasite culture were plated in 96-well microplates and incubated for 48 h at 37 °C in the presence of decreasing concentrations of the tested compounds, in triplicate. Parasitemia was determined by fluorescence-assisted cell sorting (FACS). Non-infected RBCs and samples containing parasitized RBCs (including controls with DMSO as carrier solvent) were diluted in PBS to a final concentration of ~1–10 × 10^6 cells/mL. The cell suspension was stained with SYTO 11 (0.5 mM stock in DMSO, Thermo Fisher Scientific, Waltham, MA, USA), to a final concentration of 0.5 μM. Samples were analyzed in a Becton Dickinson FACSCalibur. Sample excitation was carried out using a 488-nm, air-cooled argon-ion laser at a power of 15 mW, using forward and side scatter to gate the RBC population, and SYTO 11 green fluorescence (530 nm, FITC filter) was collected in a logarithmic scale. The single-cell population was selected on a forward–side scattergram, and the green fluorescence from this population was analyzed. Parasitemia was expressed as the number of parasitized cells per 100 erythrocytes.
as §3

[2] = tested on: T. cruzi Tulahuen strain expressing β-galactosidase; assay: T. cruzi primary screening at three fixed concentrations
Description: as §1
as §2, with “T. cruzi growth was primarily analyzed under three different concentrations (100, 10, and 1 mM) of the 81 compounds.” left out
as §3

[3] = compound at 1 µM, average of at least three independent experiments
[4] = compound at 10 µM, average of at least three independent experiments

| Structure (SMILES) | IC50 [1] [µM] | Primary screening, parasite growth relative to the negative control (P. falciparum 3D7; compound at 1 µM) [%] | Primary screening, parasite growth relative to the negative control (P. falciparum 3D7; compound at 10 µM) [%] | Primary screening, parasite growth relative to the negative control (P. falciparum 3D7; compound at 100 µM) [%] | Primary screening, growth inhibition values at 1 µM [2, 3] | Primary screening, growth inhibition values at 10 µM [2, 4] | activity at 1 µM (P. falciparum 3D7) [%] | activity at 10 µM (P. falciparum 3D7) [%] | activity at 100 µM (P. falciparum 3D7) [%] | IC50 ([1]; Trypanosoma cruzi, TULAHUEN, Vero) [µM] | activity at 100 µM ([2]; Trypanosoma cruzi, TULAHUEN, read-out: Primary screening, growth inhibition values at 100 µM) [%] | activity at 1 µM ([2]; Trypanosoma cruzi, TULAHUEN, compound at 1 µM, average of at least three independent experiments, read-out: Primary screening, growth inhibition values at 1 µM) [%] | activity at 10 µM ([2]; Trypanosoma cruzi, TULAHUEN, compound at 10 µM, average of at least three independent experiments, read-out: Primary screening, growth inhibition values at 10 µM) [%] |
| --- | --- | --- | --- | --- | --- | --- | --- | --- | --- | --- | --- | --- | --- |
| CCOc1ncnc2c1ncn2C(C)(C)C [MJ24] | 96.6 | 103.15 | 102.53 | 74.90 |  |  |  |  |  |  |  |  |  |
| CCOc1ncnc2c1ncn2Cc1ccccc1 [MJ7] |  |  |  |  | 79.69 | 95.54 | 104 | 105 | 53.8 |  |  |  |  |
| CN1CCN(n2c(-c3ccccc3)nc3c(OCc4ccccc4)ncnc32)CC1 [Compound 27] | 33.2 | 97.79 | 87.07 | 63.16 |  |  |  |  |  |  |  |  |  |
| CC(C)(C)Nc1ncnc2c1ncn2C(C)(C)C [Compound 3F] | 64.7 | 110.21 | 108.90 | 35.36 |  |  |  |  |  |  |  |  |  |
| CCOc1ncnc2c1ncn2C(C)C [MJ1] |  | 102.27 | 99.79 | 94.06 | 94.41 | 97.93 |  |  |  |  |  |  |  |
| c1ccc(COc2ncnc3c2ncn3Cc2ccccc2)cc1 [MJ11] |  |  |  |  |  |  | 103 | 102 | 31.8 | 17.7 | 6.06 | 91.4 | 85.5 |
| Cc1nc2c(OCc3ccccc3)ncnc2n1N(C)C [Compound 4M] |  | 100.27 | 101.23 | 88.99 | 88.68 | 89.08 |  |  |  |  |  |  |  |
| c1ccc(COc2ncnc3c2ncn3N2CCCCC2)cc1 [Compound 13H] |  | 100.86 | 97.31 | 67.76 | 92.39 | 93.99 |  |  |  |  |  |  |  |
| Cc1nc2c(OCc3ccccc3)ncnc2n1N1CCN(C)CC1 [Compound 28] | 40.4 | 90.78 | 89.44 | 44.36 |  |  |  |  |  |  |  |  |  |
| Cc1nc2c(OCc3ccccc3)ncnc2n1C(C)C [MJ5] |  |  |  |  | 89.81 | 90.91 | 100 | 94.6 | 88.5 |  |  |  |  |
| c1ccc(COc2ncnc3c2nc(-c2ccccc2)n3N2CCOCC2)cc1 [Compound 21] | 34.8 | 96.68 | 87.35 | 81.22 |  |  |  |  |  |  |  |  |  |
| CC(C)Oc1ncnc2c1ncn2C(C)C [MJ16] |  |  |  |  | 100.79 | 96.93 | 111 | 115 | 102 |  |  |  |  |
| Cc1nc2c(OCc3ccccc3)ncnc2n1N1CCCCC1 [Compound 13M] |  | 101.41 | 100.79 | 87.03 | 91.73 | 92.01 |  |  |  |  |  |  |  |
| CN(C)n1c(-c2ccccc2)nc2c(OCc3ccccc3)ncnc21 [Compound 4] |  | 97.86 | 97.42 | 96.42 | 94.81 | 89.88 |  |  |  |  |  |  |  |
| c1ccc(COc2ncnc3c2ncn3N2CCOCC2)cc1 [Compound 23] |  | 101.16 | 104.67 | 98.97 | 93.82 | 94.90 |  |  |  |  |  |  |  |
| Cc1nc2c(OC(C)C)ncnc2n1C(C)C [MJ17] |  | 105.71 | 108.49 | 94.00 | 97.87 | 93.73 |  |  |  |  |  |  |  |
| Cc1nc2c(OCc3ccccc3)ncnc2n1N1CCOCC1 [Compound 22] |  | 97.98 | 78.53 | 73.65 |  |  |  |  |  |  |  |  |  |
| CCOc1ncnc2c1nc(C)n2Cc1ccccc1 [MJ8] | 67.9 | 107.34 | 100.82 | 82.46 |  |  |  |  |  |  |  |  |  |
| Cc1nc2c(NC(C)(C)C)ncnc2n1C(C)(C)C [Compound 2A] |  | 110.87 | 112.26 | 30.73 | 96.86 | 88.71 |  |  |  |  |  |  |  |
